Measurements reported in patent US20090099240A1, “METHODS FOR TREATING ENERGY METABOLISM DISORDERS BY INHIBITING FATTY ACID AMIDE HYDROLASE ACTIVITY” (N.V. Organon, priority 2006, published 2009).

Legend:
[1] = system: APOE*3-Leiden transgenic (E3L) mice; assay: Lipid content of liver (TLC) in E3L mice; format: in vivo, mouse
Text: (§1) E3L mice were fed a high cholesterol (1% w/w) diet (HC diet) for a period of four weeks. Animals were then matched based on their plasma cholesterol levels, and were divided into five groups, each of which was maintained on an HC diet.
A reduction of Red Oil O staining in liver generally indicates reduced liver lipid content. We therefore quantified levels of lipids in livers from each animal, as described in Havekes et al. (1987), Biochem. J., 247:739-746; Delsing et al. (2005), J. Cardiovasc. Pharmacol., 45:53-60; and Post et al. (2004), ATVB, 24:768-774. Liver tissue homogenates were prepared. Lipids were extracted, dried under nitrogen, dissolved in chloroform, and spotted onto a channeled 20×20 cm silica gel thin layer chromatography (TLC) plate. Lipids were then separated, TLC plates were warmed up to visualize bands, and bands were quantified using an internal standard as reference.

[2] = system: APOE*3-Leiden transgenic (E3L) mice; assay: Organ and tissue weights in E3L mice on high cholesterol diet
Text: (§2) We assessed the effect of inhibiting FAAH activity on body weight, body fat, triglyceride levels, cholesterol levels in APOE*3-Leiden transgenic (E3L) mice, an animal model of hyperlipidemia. […] See van Vlijmen et al. (1994), J. Clin Invest., 93:1403-1410. Indeed, upon high fat and cholesterol feeding, these mice develop various stages of atherosclerotic lesions depending on plasma total cholesterol levels and resembling those found in humans. See Groot et al. (1996), Arterioscler. Thromb. Vasc. Biol., 16:926-933; Versch ren et al. (2005), Arterioscler. Thromb. Vasc Biol., 25:161-167; and Lutgens et al. (1999), Circulation; 99(2):276-283). Thus, the E3L mouse is a suitable model for the investigation of the efficacy of anti-atherosclerotic drugs.
as §1
(§3) Blood samples were collected at days 0, 14, and 28 of the treatment period. At the end of the treatment period, animals were sacrificed, and various tissues and organs were analyzed. Unless otherwise indicated, values are mean±standard deviation (SD).

[3] = system: APOE*3-Leiden transgenic (E3L) mice; assay: Total plasma cholesterol in E3L mice; format: in vivo, mouse
Text: as §2, §1, §3

[4] = system: APOE*3-Leiden transgenic (E3L) mice; assay: Total plasma triglyceride levels in E3L mice; format: in vivo, mouse
Text: as §2, §1, §3

[5] = system: APOE*3-Leiden transgenic (E3L) mice; assay: Plasma alanine aminotransferase (ALAT) activity in E3L mice; format: in vivo, mouse; settings: day 28
Method: as §1
Levels of plasma alanine aminotransferase (ALAT) were determined on day 28 (table 7). Plasma ALAT is a measure of hepatic stress and increases in plasma ALAT levels are often associated with liver damage. […] Thus, a reduction in plasma ALAT levels is associated with improved liver function.

[6] = system: APOE*3-Leiden transgenic (E3L) mice; assay: Plasma ketone body (D-3-hydroxybutyrate) levels in E3L mice; format: in vivo, mouse
Text: as §1
We quantified plasma D-3-hydroxybutyrate (b-HBA; ketone bodies) levels were quantified in plasma samples obtained after a 4-hour fasting period at time points t=0, t=2, and t=4 weeks using kits #2940 (b-HBA reagent set) and #2947 (b-HBA control set)) according to the guidelines and protocol specified by the manufacturer (Instruchemie, Delfzijl, The Netherlands).

[7] = system: APOE*3-Leiden transgenic (E3L) mice; assay: Food intake per animal per day in E3L mice; format: in vivo, mouse
Text: as §2, §1

[8] = system: APOE*3-Leiden transgenic (E3L) mice; assay: Body weight in E3L mice on high cholesterol diet; format: in vivo, mouse
Text: as §2, §1

[9] = system: APOE*3-Leiden transgenic (E3L) mice; assay: Plasma adiponectin ELISA in E3L mice; format: in vivo, mouse
Text: as §1
We determined plasma adiponectin levels after a four hour fasting period at 0, 14, 28 days, using a mouse-specific adiponectin/Acrp30 ELISA (kit number MRP300 from R&D Systems, Minneapolis, Minn.).

[10] = system: APOE*3-Leiden transgenic (E3L) mice; assay: Plasma lipoprotein profiles (size fractionation of pooled plasma) in E3L mice; format: in vivo, mouse; settings: day 28, FIG. 1
Method: as §1
Lipoprotein profiles were determined in pooled plasma from day 28, as described in Verschuren et al. (2005), Arterioscler. Thromb. Vasc Biol., 25:161-167. An equal amount of plasma per animal was used to prepare a plasma pool for each group. Plasma lipoproteins in each plasma pool were separated by size fractionation. Typically, VLDL, IDL/LDL and HDL lipoproteins are eluted in fractions 4-8, fractions 11-16 and fractions 17-20, respectively.

[11] = system: APOE*3-Leiden transgenic (E3L) mice; assay: Oil Red O staining of liver sections (steatosis) in E3L mice; format: in vivo, mouse
Text: as §1
In order to examine cellular stress in the liver due to lipid storage (steatosis), we stained frozen liver tissue sections with Oil Red O a fat-soluble diazo dye used to stain for lipids. Digital photomicrographs of liver cross sections were taken for each individual animal (magnification: 20 fold). […]

[12] = system: APOE*3-Leiden transgenic (E3L) mice; assay: Plasma leptin ELISA in E3L mice; format: in vivo, mouse
Text: as §1
Accordingly, we quantified plasma leptin levels after a four hour fasting period at treatment time points 0, 14, and 28 days using a mouse-specific leptin ELISA or (kit number MOB00 from R&D Systems, Minneapolis, Minn.) according to the guidelines and protocol specified by the manufacturer.

[13] = E3L mice, HC diet, end of four-week treatment, mean ± SD

CC(C)OC(=O)C(C)(C)Oc1ccc(C(=O)c2ccc(Cl)cc2)cc1 [Fenofibrate, fenofibrate]
Lipid Content of Liver: Cholesterol Esters ([1]; end of four-week treatment): 44 ± 6 | Lipid Content of Liver: Free Cholesterol ([1]; end of four-week treatment): 21 ± 2 | Organ and Tissue Weights: Fat (gonadal fat) [2, 13]: 0.48 ± 0.14 g | Organ and Tissue Weights: Heart [2, 13]: 0.14 ± 0.02 g | Organ and Tissue Weights: Liver [2, 13]: ^#1.77 ± 0.28^ g | Organ and Tissue Weights: Lung [2, 13]: 0.21 ± 0.05 g | liver weight, in words ([2]; relative to its control group): significant increase | Total Plasma Cholesterol ([3]; day 0): 13.6 ± 4.2 mM | Total Plasma Cholesterol ([3]; day 14): *6.5 ± 1.0 mM | Total Plasma Cholesterol ([3]; day 28): *6.2 ± 1.3 mM | Total Plasma Triglyceride Levels ([4]; day 0): 1.6 ± 0.4 mM | Total Plasma Triglyceride Levels ([4]; day 14): ^#*0.7 ± 0.2 mM | Total Plasma Triglyceride Levels ([4]; day 28): ^#*0.7 ± 0.2 mM | Plasma Alanine Amino Transferase Activity [5]: 112.5 ± 10.4 U/L

CCCCCCCC/C=C\CCCCCCCC(=O)NCCO [OEA, oleoylethanolamide]
plasma HB levels, in words ([6]; at 28 days, compared to the oral vehicle control group): significantly lower | Plasma Ketone Body (HB) levels ([6]; day 0, 4-hour fasting): 0.79 ± 0.19 mM | Plasma Ketone Body (HB) levels ([6]; day 14, 4-hour fasting): 0.23 ± 0.09 mM | Plasma Ketone Body (HB) levels ([6]; day 28, 4-hour fasting): ^#0.38 ± 0.10^ mM | Food Intake Per Animal Per Day ([7]; interval 0-0.5 weeks): 2.5 ± 0.05 g | Food Intake Per Animal Per Day ([7]; interval 0.5-1.0 weeks): 2.3 ± 0.04 g | Food Intake Per Animal Per Day ([7]; interval 1.0-1.5 weeks): 2.4 ± 0.1 g | Food Intake Per Animal Per Day ([7]; interval 1.5-2.0 weeks): 2.4 ± 0.1 g | Food Intake Per Animal Per Day ([7]; interval 2.0-2.5 weeks): 2.3 ± 0.1 g | Food Intake Per Animal Per Day ([7]; interval 2.5-3.0 weeks): 2.3 ± 0.05 g | Food Intake Per Animal Per Day ([7]; interval 3.0-3.5 weeks): 2.3 ± 0.1 g | Food Intake Per Animal Per Day ([7]; interval 3.5-4.0 weeks): *2.0 ± 0.1 g | Food Intake Per Animal Per Day ([7]; interval run-in): 2.5 ± 0.5 g | food intake, in words ([7]; last time point): slight, but significant, decrease | body weights, in words ([8]; last time point (4 weeks), within group): significantly reduced | Body Weight ([8]; week 0): 22.3 ± 1.3 g | Body Weight ([8]; week 0.5): 22.5 ± 1.0 g | Body Weight ([8]; week 1): 22.6 ± 1.0 g | Body Weight ([8]; week 1.5): 21.8 ± 1.1 g | Body Weight ([8]; week 2): 21.9 ± 1.2 g | Body Weight ([8]; week 2.5): 21.9 ± 1.3 g | Body Weight ([8]; week 3): *21.6 ± 1.1 g | Body Weight ([8]; week 3.5): *21.3 ± 1.2 g | Body Weight ([8]; week 4): *21.4 ± 1.2 g | Plasma Adiponectin Levels ([9]; day 0, four hour fasting): 12.9 ± 2.8 µg/mL | Plasma Adiponectin Levels ([9]; day 14, four hour fasting): 11.3 ± 3.5 µg/mL | Plasma Adiponectin Levels ([9]; day 28, four hour fasting): 11.4 ± 2 µg/mL | IDL/LDL particle size, in words [10]: slight shift toward larger IDL/LDL particles | VLDL fraction of plasma lipoprotein profile, in words [10]: increase | liver cholesterol esters (CE), in words ([1]; compared to the oral vehicle group): significantly increased | Lipid Content of Liver: Cholesterol Esters ([1]; end of four-week treatment): ^#61 ± 7 ^ | Lipid Content of Liver: Free Cholesterol ([1]; end of four-week treatment): 21 ± 2 | Lipid Content of Liver: Triglycerides ([1]; end of four-week treatment): 94 ± 11 | Organ and Tissue Weights: Fat (gonadal fat) [2, 13]: *0.24 ± 0.06 g | Organ and Tissue Weights: Brain ([2]; mouse, in vivo): 0.44 ± 0.02 g | Organ and Tissue Weights: Heart ([2]; mouse, in vivo): 0.14 ± 0.01 g | Organ and Tissue Weights: Liver ([2]; mouse, in vivo): 0.91 ± 0.16 g | Organ and Tissue Weights: Lung ([2]; mouse, in vivo): 0.19 ± 0.02 g | gonadal fat weight, in words ([2]; relative to the oral vehicle group): significantly lower | Total Plasma Cholesterol ([3]; day 0): 13.9 ± 3.4 mM | Total Plasma Cholesterol ([3]; day 14): ^#16.0 ± 2.9 mM | Total Plasma Cholesterol ([3]; day 28): ^#15.8 ± 2.7 mM | total plasma cholesterol levels, in words ([3]; days 14 and 28, relative to respective control group): slightly and significantly increased | Total Plasma Triglyceride Levels ([4]; day 0): 1.5 ± 0.4 mM | Total Plasma Triglyceride Levels ([4]; day 14): 1.7 ± 0.6 mM | Total Plasma Triglyceride Levels ([4]; day 28): *1.3 ± 0.3 mM | total plasma triglyceride levels, in words ([4]; relative to respective control group): slightly decreased | steatotic (Oil Red O) staining in liver, in words ([11]; compared to the control vehicle group): small, but significant reduction | Oil Red O Staining in Liver, Mild-Severe (above 115 relative units) ([11]; end of four-week treatment): *36 ± 5 % of cross-sectional area | Oil Red O Staining in Liver, Severe (above 175 relative units) ([11]; end of four-week treatment): *8 ± 2 % of cross-sectional area | Plasma Alanine Amino Transferase Activity [5]: *68.6 ± 17.6 U/L | plasma leptin levels, in words ([12]; at 14 days, relative to the oral vehicle control group): lower | Plasma Leptin Levels ([12]; day 0, four hour fasting): 4.7 ± 2.3 ng/mL | Plasma Leptin Levels ([12]; day 14, four hour fasting): ^#7.3 ± 3.1^ ng/ml | Plasma Leptin Levels ([12]; day 28, four hour fasting): 6.1 ± 4.6 ng/mL
